# Experimental data reported in patent US20250257061A1, “COMPOSITIONS AND METHODS FOR TREATING CANCER AND REDUCING WNT MEDIATED EFFECTS” (StemSynergy Therapeutics, Inc., priority 2024, published 2025).
# Like-named read-outs stand apart in the source and are kept apart here.
# Key:
# [1] = system: Wnt-dependent HCT116 cell line; test: Viability assay using Wnt-dependent HCT116 cell line (Cell Titer Glo); type: cell-based
# Experimental: All compounds were tested using the human cell line HEK STF293. This cell line carries a Wnt reporter (TCF/LEF1 promoter), which drives expression of the firefly luciferase protein. The level of Wnt activity is directly correlated with the level of luciferase activity (determined using a simple assay). Compounds that inhibit Wnt signaling by reducing luciferase activity in these two cell lines are further tested biochemically. […] Compounds were further tested in a Viability assay using Wnt-dependent HCT116 cell line. HEK293 cells were seeded in a 6-well plate at approximately 8.0×10^5 cells (2 mL per well). On the first day, Wnt3a-conditioned media (1:1) and compounds (1:100) were added to the plated cells. The final concentrations of compounds were 1 μM, 500 nM, and 100 nM. Vehicle (DMSO) and a Wnt3a-conditioned media plus Vehicle samples were also prepared as controls. Lysates were collected (with non-denaturing lysis buffer) after 24 hours incubation, and protein concentrations determined by Bradford Assay. Immunoblotting with an anti-beta-catenin antibody (equivalent amounts of protein/lane for each condition) were subsequently performed to determine beta-catenin levels. HCT116 cells were seeded at 2,500 cells/well in a 96-well dish (Volume: 100 μL/well). On the second day, the 10 mM stock solution of each test compound was thawed at room temperature. Dilutions of the test compound were prepared in DMSO in a V-bottom 96-well plate. The stock compound solution, DMSO-diluted compound solutions, and DMSO were further diluted 500-fold in cell culture media, and 100 μL of the compound- or DMSO-containing cell culture media was added to each well of the cells. […] The final DMSO concentration was 0.1% in all wells. On the fifth day, 150 μL of media was removed from each well. 50 μL/well Cell Titer Glo reagent (Promega) was added to each well. The plate was shaken at 130 rpm for 15 minutes at room temperature, and the cell viability was determined using a luminescence plate reader. All compounds were tested using the human cell line HEK STF293. This cell line carries a Wnt reporter (TCF/LEF1 promoter), which drives expression of the firefly luciferase protein. The level of Wnt activity is directly correlated with the level of luciferase activity (determined using a simple assay). Compounds that inhibit Wnt signaling by reducing luciferase activity in these two cell lines are further tested biochemically. […] Compounds were further tested in a Viability assay using Wnt-dependent HCT116 cell line. HEK293 cells were seeded in a 6-well plate at approximately 8.0×10^5 cells (2 mL per well). On the first day, Wnt3a-conditioned media (1:1) and compounds (1:100) were added to the plated cells. The final concentrations of compounds were 1 μM, 500 nM, and 100 nM. Vehicle (DMSO) and a Wnt3a-conditioned media plus Vehicle samples were also prepared as controls. Lysates were collected (with non-denaturing lysis buffer) after 24 hours incubation, and protein concentrations determined by Bradford Assay. Immunoblotting with an anti-beta-catenin antibody (equivalent amounts of protein/lane for each condition) were subsequently performed to determine beta-catenin levels. HCT116 cells were seeded at 2,500 cells/well in a 96-well dish (Volume: 100 μL/well). On the second day, the 10 mM stock solution of each test compound was thawed at room temperature. Dilutions of the test compound were prepared in DMSO in a V-bottom 96-well plate. The stock compound solution, DMSO-diluted compound solutions, and DMSO were further diluted 500-fold in cell culture media, and 100 μL of the compound- or DMSO-containing cell culture media was added to each well of the cells. […] The final DMSO concentration was 0.1% in all wells. On the fifth day, 150 μL of media was removed from each well. 50 μL/well Cell Titer Glo reagent (Promega) was added to each well. The plate was shaken at 130 rpm for 15 minutes at room temperature, and the cell viability was determined using a luminescence plate reader. […]
# [2] = system: Wnt reporter (TCF/LEF1 promoter); test: HEK STF293 Wnt reporter (TOPFlash) luciferase assay, Steady Glo normalised to Cell Titer; type: cell-based, human
# Experimental: All compounds were tested using the human cell line HEK STF293. This cell line carries a Wnt reporter (TCF/LEF1 promoter), which drives expression of the firefly luciferase protein. The level of Wnt activity is directly correlated with the level of luciferase activity (determined using a simple assay). Compounds that inhibit Wnt signaling by reducing luciferase activity in these two cell lines are further tested biochemically. […] Compounds were further tested in a Viability assay using Wnt-dependent HCT116 cell line. Compounds were prepared as 10 mM stocks for each compound in DMSO. Dilutions were prepared in a 96-well plate in DMSO. The stock dilutions are as follows: 10 mM, 1 mM, 100 μM, 10 μM, 100 nM, and 10 nM. Plates were sealed and stored at −20° C. […] On the first day, Wnt3a-conditioned media (1:1) were added along with diluted compounds (1:100). […] The final concentrations should therefore be 100 μM, 10 μM, 1 μM, 100 nM, 10 nM, and 1 nM. On the second day, the media was removed and 75 μL of Passive Lysis Buffer (Promega) is added to each well. The plate was shaken at 130 rpm for 15 minutes. For the Steady Glo assay, 45 μL of the lysis was removed and added to a white 96-well plate containing 45 μL/well of Steady Glo solution (Promega). For the Cell Titer assay, 25 μL of the lysis was transferred to a white 96-well plate containing 25 μL/well of Cell Titer solution (Promega). Both Steady Glo and Cell Titer assays were read with a luminescence plate reader. When determining EC50, the Steady Glo values were divided by the Cell Titer values to normalize for cell number. All compounds were tested using the human cell line HEK STF293. This cell line carries a Wnt reporter (TCF/LEF1 promoter), which drives expression of the firefly luciferase protein. The level of Wnt activity is directly correlated with the level of luciferase activity (determined using a simple assay). Compounds that inhibit Wnt signaling by reducing luciferase activity in these two cell lines are further tested biochemically. […] Compounds were further tested in a Viability assay using Wnt-dependent HCT116 cell line. Compounds were prepared as 10 mM stocks for each compound in DMSO. Dilutions were prepared in a 96-well plate in DMSO. The stock dilutions are as follows: 10 mM, 1 mM, 100 μM, 10 μM, 100 nM, and 10 nM. Plates were sealed and stored at −20° C. […] On the first day, Wnt3a-conditioned media (1:1) were added along with diluted compounds (1:100). […] The final concentrations should therefore be 100 μM, 10 μM, 1 μM, 100 nM, 10 nM, and 1 nM. On the second day, the media was removed and 75 μL of Passive Lysis Buffer (Promega) is added to each well. The plate was shaken at 130 rpm for 15 minutes. For the Steady Glo assay, 45 μL of the lysis was removed and added to a white 96-well plate containing 45 μL/well of Steady Glo solution (Promega). For the Cell Titer assay, 25 μL of the lysis was transferred to a white 96-well plate containing 25 μL/well of Cell Titer solution (Promega). Both Steady Glo and Cell Titer assays were read with a luminescence plate reader. When determining EC50, the Steady Glo values were divided by the Cell Titer values to normalize for cell number. All compounds were tested using the human cell line HEK STF293. This cell line carries a Wnt reporter (TCF/LEF1 promoter), which drives expression of the firefly luciferase protein. The level of Wnt activity is directly correlated with the level of luciferase activity (determined using a simple assay). Compounds that inhibit Wnt signaling by reducing luciferase activity in these two cell lines are further tested biochemically. […] Compounds were further tested in a Viability assay using Wnt-dependent HCT116 cell line. Compounds were prepared as 10 mM stocks for each compound in DMSO. Dilutions were prepared in a 96-well plate in DMSO. The stock dilutions are as follows: 10 mM, 1 mM, 100 μM, 10 μM, 100 nM, and 10 nM. Plates were sealed and stored at −20° C. […]
# [3] = Homo sapiens, HCT-116, Examples for Formulae (IV), (V), (VI), and (VII), HCT116 cells, read-out: Viability IC50 category
# [4] = Homo sapiens, STF/293, Examples for Formulae (IV), (V), (VI), and (VII), HEK STF293 cells, Wnt3a-conditioned media, read-out: TOPFlash IC50 category
# [5] = Homo sapiens, HCT-116, Examples for Formulae (I), (II), and (III), HCT116 cells, read-out: Viability IC50 category
# [6] = Homo sapiens, STF/293, Examples for Formulae (I), (II), and (III), HEK STF293 cells, Wnt3a-conditioned media, read-out: TOPFlash IC50 category
# [7] = Examples for Formulae (IV), (V), (VI), and (VII), HCT116 cells, read-out: Viability IC50 category
# [8] = Examples for Formulae (IV), (V), (VI), and (VII), HEK STF293 cells, Wnt3a-conditioned media, read-out: TOPFlash IC50 category
# [9] = Homo sapiens, HCT-116, Examples for Formulae (VIII), (IX), and (X), HCT116 cells, read-out: Viability IC50 category
# [10] = Homo sapiens, STF/293, Examples for Formulae (VIII), (IX), and (X), HEK STF293 cells, Wnt3a-conditioned media, read-out: TOPFlash IC50 category
smiles,measurement,setting,value
Cc1nc(N(C)S(=O)(=O)c2ccccc2Cl)oc1C(=O)Nc1nc(-c2ccccn2)cs1 [Example 49],IC50,[1]; [3],500 to 1000 nM
same,IC50,[2]; [4],200 to 500 nM
Cc1nn(-c2ccc(F)cc2)c(C)c1C(=O)Nc1nc(-c2ccccn2)cs1 [Example 5],IC50,[1]; [5],1000 to 10000 nM
same,IC50,[2]; [6],1000 to 10000 nM
COc1ccccc1-c1noc(C)c1C(=O)Nc1nc(-c2ccccn2)cs1 [Example 21],IC50,"[1]; Homo sapiens, HCT-116, read-out: Viability IC50 category",1000 to 10000 nM
same,IC50,"[2]; Homo sapiens, STF/293, read-out: TOPFlash IC50 category",1000 to 10000 nM
CN(c1nc(C(F)(F)F)c(C(=O)Nc2nc(-c3ccccn3)cs2)o1)S(=O)(=O)c1ccc(F)cc1 [Example 54],IC50,[1]; [3],1000 to 10000 nM
same,IC50,[2]; [4],1000 to 10000 nM
Cc1noc(-c2ccccc2)c1C(=O)Nc1nc(-c2ccccn2)cs1 [Example 3],IC50,[1]; [3],200 to 500 nM
same,IC50,[2]; [4],200 to 500 nM
Cc1onc(-c2ccc(C(F)(F)F)c(Cl)c2)c1C(=O)Nc1nc(-c2ccccn2)cs1 [Example 63],IC50,[1]; [3],200 to 500 nM
same,IC50,[2]; [4],200 to 500 nM
Cc1nc(-c2ccc(Cl)cc2)c(C(=O)Nc2nc(-c3ccccn3)cs2)o1 [Example 9],IC50,[1]; [3],< 200 nM
same,IC50,[2]; [4],< 200 nM
CN(c1nc(C(F)(F)F)c(C(=O)Nc2nc(-c3ccccn3)cs2)o1)S(=O)(=O)c1ccccc1Cl [Example 56],IC50,[1]; [7],500 to 1000 nM
same,IC50,[2]; [8],500 to 1000 nM
O=C(Nc1nc(-c2ccccn2)cs1)c1ccc(=O)n(-c2ccccc2F)c1 [Example 3],IC50,[1]; [9],500 to 1000 nM
same,IC50,[2]; [10],200 to 500 nM
Cc1nc(-c2ccc(-c3nnc(C(F)(F)F)o3)cc2)c(C(=O)Nc2nc(-c3ccccn3)cs2)o1 [Example 66],IC50,[1]; [7],< 200 nM
same,IC50,[2]; [8],< 200 nM
Cc1c(C(=O)Nc2nc(-c3ccccn3)cs2)cnn1Cc1ccccc1 [Example 1],IC50,[1]; [5],1000 to 10000 nM
same,IC50,[2]; [6],1000 to 10000 nM
O=C(Nc1nc(-c2ccccn2)cs1)c1ccc(=O)n(-c2ccc(F)cc2)c1 [Example 2],IC50,[1]; [9],500 to 1000 nM
same,IC50,[2]; [10],200 to 500 nM
